Source: ChEMBL document CHEMBL2021888, “Discovery of Novel α4β2 Neuronal Nicotinic Receptor Modulators through Structure-Based Virtual Screening” (ACS Med Chem Lett, 2011)

How the values were obtained:
[1] = target: T1, Neuronal acetylcholine receptor; alpha4/beta2 (Homo sapiens, UniProt P17787+P43681); experiment: Antagonist activity at human alpha4beta2 nAChR expressed in HEK tsA201 cells assessed as inhibition of epibatidine-induced intracellular calcium accumulation at 50 uM after 1 hr by fluorescence assay relative to control; format: functional, cell-based; conditions: HEK293, values are per cent of control
T1 sequence (P17787 whole entry): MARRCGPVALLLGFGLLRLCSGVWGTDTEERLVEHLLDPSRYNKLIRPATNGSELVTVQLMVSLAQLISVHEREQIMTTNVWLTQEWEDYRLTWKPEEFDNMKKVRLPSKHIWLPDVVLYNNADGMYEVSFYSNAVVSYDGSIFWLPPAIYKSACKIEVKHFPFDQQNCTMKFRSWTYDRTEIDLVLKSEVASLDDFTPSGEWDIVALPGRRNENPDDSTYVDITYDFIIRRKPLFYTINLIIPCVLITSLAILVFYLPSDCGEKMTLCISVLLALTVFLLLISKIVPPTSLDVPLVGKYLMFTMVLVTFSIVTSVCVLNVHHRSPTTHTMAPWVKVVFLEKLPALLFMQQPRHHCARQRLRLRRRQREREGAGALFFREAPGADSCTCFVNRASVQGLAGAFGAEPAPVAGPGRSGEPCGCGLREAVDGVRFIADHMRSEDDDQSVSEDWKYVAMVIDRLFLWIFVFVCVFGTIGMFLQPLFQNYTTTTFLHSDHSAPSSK
T1 sequence (P43681 whole entry): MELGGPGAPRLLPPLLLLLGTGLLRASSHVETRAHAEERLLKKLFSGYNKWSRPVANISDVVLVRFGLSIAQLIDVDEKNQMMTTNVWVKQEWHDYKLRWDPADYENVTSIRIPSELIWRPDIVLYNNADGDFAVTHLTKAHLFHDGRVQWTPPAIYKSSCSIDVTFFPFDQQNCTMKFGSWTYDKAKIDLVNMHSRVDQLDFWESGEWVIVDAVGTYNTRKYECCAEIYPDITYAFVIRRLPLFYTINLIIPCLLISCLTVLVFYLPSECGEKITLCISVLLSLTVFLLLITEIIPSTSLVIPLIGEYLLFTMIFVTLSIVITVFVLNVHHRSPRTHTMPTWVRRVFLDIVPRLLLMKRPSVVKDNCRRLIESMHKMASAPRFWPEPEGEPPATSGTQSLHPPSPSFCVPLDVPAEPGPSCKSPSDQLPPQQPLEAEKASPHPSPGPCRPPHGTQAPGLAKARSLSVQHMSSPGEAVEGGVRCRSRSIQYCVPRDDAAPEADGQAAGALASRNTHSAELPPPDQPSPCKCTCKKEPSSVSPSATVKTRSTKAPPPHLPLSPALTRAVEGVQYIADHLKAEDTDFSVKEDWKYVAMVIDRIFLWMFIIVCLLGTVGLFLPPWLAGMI

[2] = target: T1, Neuronal acetylcholine receptor; alpha4/beta2; experiment: Antagonist activity at human alpha4beta2 nAChR expressed in HEK tsA201 cells assessed as inhibition of epibatidine-induced intracellular calcium accumulation after 1 hr by fluorescence assay; format: functional, cell-based, HEK293
[3] = target: Neuronal acetylcholine receptor; alpha3/beta4 (Homo sapiens, UniProt P30926+P32297); experiment: Antagonist activity at human alpha3beta4 nAChR expressed in HEK tsA201 cells assessed as inhibition of epibatidine-induced intracellular calcium accumulation after 1 hr by fluorescence assay; format: functional, cell-based, HEK293
Neuronal acetylcholine receptor; alpha3/beta4, sequence (P30926 whole entry): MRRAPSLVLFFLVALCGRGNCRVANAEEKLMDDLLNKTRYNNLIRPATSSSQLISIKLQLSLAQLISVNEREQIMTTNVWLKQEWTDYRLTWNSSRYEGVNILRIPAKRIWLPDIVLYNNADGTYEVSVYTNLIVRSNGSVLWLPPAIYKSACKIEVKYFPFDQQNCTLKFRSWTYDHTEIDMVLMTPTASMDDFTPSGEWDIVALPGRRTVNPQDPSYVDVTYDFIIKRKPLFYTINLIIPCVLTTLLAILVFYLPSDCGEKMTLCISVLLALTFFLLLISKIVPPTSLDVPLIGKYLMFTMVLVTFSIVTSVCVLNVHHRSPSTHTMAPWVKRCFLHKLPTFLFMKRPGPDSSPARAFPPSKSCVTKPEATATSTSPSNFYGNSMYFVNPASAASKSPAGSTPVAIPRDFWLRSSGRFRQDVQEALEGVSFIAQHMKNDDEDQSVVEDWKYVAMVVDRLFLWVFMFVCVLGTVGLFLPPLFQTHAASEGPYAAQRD
Neuronal acetylcholine receptor; alpha3/beta4, sequence (P32297 whole entry): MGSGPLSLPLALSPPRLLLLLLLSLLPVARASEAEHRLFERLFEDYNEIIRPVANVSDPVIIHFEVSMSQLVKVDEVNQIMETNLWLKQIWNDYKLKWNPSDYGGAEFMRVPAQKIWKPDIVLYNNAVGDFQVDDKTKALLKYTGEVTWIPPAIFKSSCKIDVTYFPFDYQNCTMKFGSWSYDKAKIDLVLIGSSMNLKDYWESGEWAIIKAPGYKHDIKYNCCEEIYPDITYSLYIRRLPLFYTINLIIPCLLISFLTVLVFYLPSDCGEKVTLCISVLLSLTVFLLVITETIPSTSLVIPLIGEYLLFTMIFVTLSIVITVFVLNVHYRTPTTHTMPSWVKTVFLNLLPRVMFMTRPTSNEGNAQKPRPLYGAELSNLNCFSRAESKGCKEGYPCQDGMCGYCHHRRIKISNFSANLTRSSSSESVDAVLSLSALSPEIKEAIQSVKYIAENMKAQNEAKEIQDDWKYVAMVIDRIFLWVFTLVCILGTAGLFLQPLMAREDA

Cn1c(=O)c2[nH]c(CN3CCc4ccccc4C3)nc2n(C)c1=O
residual activity [1]: 83.2%

C=CCN1C(=O)[C@](O)(CC(=O)c2ccco2)c2cc(Cl)ccc21
IC50 [2]: 6.1 µM | IC50 [3]: > 100 µM | residual activity [1]: 51.1%

CC(=O)N1CCN(c2ccc(NC(=O)c3cccnc3)cc2Cl)CC1
residual activity [1]: 103%

O=C(CN1CCN(c2ccccc2)CC1)NCc1ccco1
residual activity [1]: 59.8%

Cc1cccc(C(C)C)c1NC(=O)c1ccccc1NS(C)(=O)=O
residual activity [1]: 74%

C=C(C)CN1C(=O)C(O)(CC(=O)c2ccccn2)c2ccccc21 (configuration not stated)
residual activity [1]: 59.9%

O=C(CSc1nnc(-c2ccccn2)o1)Nc1cccc2ccccc12
residual activity [1]: 76.2%

Cc1cccc(NC(=O)c2cc(N)ccc2N2CCCCC2)n1
IC50 [2]: 14.4 µM | IC50 [3]: 46.3 µM | residual activity [1]: 47.7%

O=C(O)CCC(=O)Nc1cc(F)ccc1F
residual activity [1]: 83.3%

CC(=O)Nc1ccc2c(c1)nc(CN1CCCCC1)n2C
residual activity [1]: 86.2%

O=C(CN1CCN(S(=O)(=O)c2ccc(F)cc2)CC1)Nc1ccccc1F
IC50 [2]: 9.8 µM | IC50 [3]: 19.6 µM | residual activity [1]: 46.9%

O=C(O)c1cc(NCc2cccs2)ccc1N1CCOCC1
IC50 [2]: 20.6 µM | IC50 [3]: > 100 µM | residual activity [1]: 49.5%

O=C(Nc1ccc(F)cc1)C1CC(=O)n2c(nc3ccccc32)N1 (configuration not stated)
residual activity [1]: 72.5%

COC(=O)c1ccc(N2CCN(C)CC2)c(NC(=O)Cc2ccccc2)c1
residual activity [1]: 71%
